From BindingDB's records for patent US10544130 (Merck Sharp & Dohme Corp., 2020)

Tests used:
[1] = target: Metallo-beta-lactamase VIM-1 (Pseudomonas aeruginosa, UniProt A0A0F7KYQ8)
[2] = target: Metallo-beta-lactamase type 2 (Klebsiella pneumoniae, UniProt C7C422)
Sequence of Metallo-beta-lactamase type 2 (C7C422 whole entry): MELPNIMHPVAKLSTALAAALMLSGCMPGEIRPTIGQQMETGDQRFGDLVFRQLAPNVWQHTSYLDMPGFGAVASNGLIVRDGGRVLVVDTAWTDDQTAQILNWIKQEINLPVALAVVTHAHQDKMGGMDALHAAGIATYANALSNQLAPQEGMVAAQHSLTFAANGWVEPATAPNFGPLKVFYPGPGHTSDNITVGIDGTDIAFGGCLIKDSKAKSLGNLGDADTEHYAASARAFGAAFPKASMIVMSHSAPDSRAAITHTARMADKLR

Row | SMILES | IC50 [1] [nM] | IC50 [2] [nM]
1 | N#Cc1cccc(B(O)O)c1N [US10544130, Example 11] | 0.05 | 0.019
2 | C[N+]1(CCN)CC[C@@H](NS(=O)(=O)c2ccc(-c3cccc4[nH]c(N)nc34)c(-c3nn[nH]n3)c2S(N)(=O)=O)C1 (stereo not given in full) [US10544130, Example 248] |  | 0.011
3 | Nc1ncccc1-c1ccc(S(=O)(=O)N[C@H]2C[C@@H]2N)c(S(N)(=O)=O)c1-c1nn[nH]n1 [US10544130, Example 216] | 0.269 | 0.237
4 | COc1ccc(CN(Cc2ccc(OC)cc2)S(=O)(=O)c2c(S(=O)(=O)NC[C@@H](CNC(=O)OC(C)(C)C)NC(=O)OC(C)(C)C)ccc(I)c2-c2nnn(Cc3ccc(OC)cc3)n2)cc1 [US10544130, Example 81] | 0.135 | 
5 | OB(O)c1cccc2[nH]cnc12 [US10544130, Example 12] | 0.102 | 
6 | COc1ccc(CN(Cc2ccc(OC)cc2)S(=O)(=O)c2c(S(=O)(=O)N[C@H]3CN(C(=O)OC(C)(C)C)C[C@@H]3NC(=O)OC(C)(C)C)ccc(I)c2-c2nnn(Cc3ccc(OC)cc3)n2)cc1 [US10544130, Example 82] |  | 0.049
7 | COc1ccc(CN(Cc2ccc(OC)cc2)S(=O)(=O)c2c(S(=O)(=O)NC[C@H](CO)NC(=O)OCc3ccccc3)ccc(I)c2-c2nnn(Cc3ccc(OC)cc3)n2)cc1 [US10544130, Example 80] | 0.158 | 
8 | COc1ccc(CN(Cc2ccc(OC)cc2)S(=O)(=O)c2c(S(=O)(=O)N[C@@H]3CCN(C(=O)OC(C)(C)C)C3)ccc(I)c2-c2nnn(Cc3ccc(OC)cc3)n2)cc1 [US10544130, Example 72] |  | 0.02
